# Assay results reported in patent US20100310674A1, “NOVEL COMPOSITION FOR TREATING THE SIDE EFFECTS OF ANTICANCER TREATMENTS” (TROPHOS, priority 2007, published 2010).
# Assays:
# [1] = test system: cold allodynia induced by oxaliplatin; assay: Cold allodynia (acetone drop) induced by cumulative doses of oxaliplatin in the rat; format: in vivo, rat (Sprague-Dawley)
# Experimental: The effect of the cholest-4-en-3-one oxime on cold allodynia induced by cumulative doses of oxaliplatin were evaluated in the rat. Adult male Sprague-Dawley rats weighing approximately 150 g were used. The oxaliplatin was injected by intra-peritoneal route at 3 mg/kg three times a week and for three weeks (total cumulative dose of 27 mg/kg). The paw withdrawal time as well as the amplitude of the animal's response to harmless thermal stimulations using a drop of acetone were measured in the rats before and after treatment by oxaliplatin on days 1 and 18 respectively, and then on each day of treatment with cholest-4-en-3-one oxime, from day 22 to day 25. The cholest-4-en-3-one oxime (1, 10 and 100 mg/kg once daily) was administered by oral route from day 22 to day 25 and the thresholds for withdrawal of the paw were measured 4 hours after administration of the cholest-4-en-3-one oxime. 7 to 9 rats were used per dose tested. For each animal, the reaction times at which the animals withdrew their hind paw following the deposition of the drop of acetone were calculated as the average of six consecutive tests carried out at 5-minute intervals by an investigator ignorant of the treatments applied to each of the animals. A limit of 20 seconds was imposed. The amplitude of the response to the drop of acetone was marked on a scale of 0 to 3: 0 (no response); 1 (rapid withdrawal of the paw); 2 (prolonged withdrawal of the paw); 3 (repeated withdrawal of the paw with licking and/or biting). The score of each of the six tests was totalled. A stock solution of cholest-4-en-3-one oxime in corn oil was prepared on the first day of the experimentation and administered once daily by oral tube feeding (5 ml/kg). The cholest-4-en-3-one oxime was reduced to a fine powder and mixed with the necessary quantity of vehicle in order to obtain concentrations of 0.2, 2 and 20 mg/ml, the mixture is then homogenized by magnetic stirring for at least 10 minutes. Stock solutions were kept at 4° C. between administrations. A statistical analysis was carried out using a two-way ANOVA test followed by Bonferroni's test in order to compare the effect of the test compound with respect to the vehicle.
# [2] = test system: neuropathies induced by paclitaxel; assay: Hypersensitivity to pain (mechanical allodynia 4 gVFH, mechanical hyperalgesia 15 gVFH) in rat model of neuropathies induced by paclitaxel; format: in vivo, rat (Sprague-Dawley); conditions: for anti-allodynia (4 gVFH) / anti-hyperalgesia (15 gVFH): AUC D16-D40
# Experimental: Adult male Sprague-Dawley rats were used.
# Paclitaxel (6 mg/ml in a 50:50 mixture of Cremophor and ethanol) was diluted just before use with a […] sodium chloride solution at a concentration of 2 mg/ml and injected by intraperitoneal route in a volume of 1 ml/kg on days 0, 2, 4 and 6.
# Fresh solutions of cholest-4-en-3 one oxime (Sigma) in corn oil were prepared each week at a concentration of 0.6 or 6.0 mg/ml. This solution was given to the animal by oral tube feeding in a volume of 5 ml/kg.
# Three groups of 12 animals treated with paclitaxel were formed: • group 1: cholest-4-en-3-one oxime at 3 mg/kg per os, daily for 17 days (day(−1)-day(15), commencing on the day before the first injection of paclitaxel and continuing for 9 days after the last injection of paclitaxel). On the days when the cholest-4-en-3-one oxime and the paclitaxel had to be administered, the cholest-4-en-3-one oxime was given at 9:00 h, and the paclitaxel at 13:00 h; • group 2: as above except that the cholest-4-en-3-one oxime was given at 30 mg/kg; • group 3: as above except that the animals received an identical volume of excipient (corn oil);
# The animals were habituated to the test environment for 3 separate days and then 3 sessions per day were organized in order to establish the normal response to a von Frey hairs (VFH) stimulation exerting pressure of 4 g or 15 g (4 gVFH or 15 gVFH). Normal rats rarely withdraw from a stimulation with 4 gVFH; thus, an increase in response post treatment with paclitaxel is a sign of mechanical allodynia. Normal rats withdraw from a stimulation with 15 gVFH 10-20% of the time; thus an increased frequency of response to this stimulus indicates mechanical hyperalgesia.
# The animals were placed in cages containing a metal mesh floor giving access to the soles of the animals' paws. Each mechanical stimulus was applied to the middle of the heel of the left hind paw. The presence or absence of withdrawal of the paw was noted. This was repeated 5 times on each hind paw and the animals' responses were summarized as a percentage of responses (5 withdrawals of the paw in response to a stimulation of 15 gVFH corresponded to a score of 50%).
# The rats were habituated to the test environment for 3 days. Tests relating to the reference level of sensitivity at 4 g and 15 gVFH were carried out for 3 consecutive days; the average of the last two corresponded to the level of sensitivity before treatment with paclitaxel. The behaviour tests for testing the effects of paclitaxel commenced on day 16 and were repeated on days 19, 22, 25, 28, 31, 35 and 40, by an investigator ignorant of the treatments applied to each of the animals.
# The area-under-the-curve values were calculated for each group during the period from D16 to D40 (from the start of the appearance of the pain due to the paclitaxel to the end of the experiment). The AUC values were analyzed with an ANOVA test followed by comparison “in pairs” with the group having received the excipient by Dunnett's t-test.
# [3] = test system: tactile allodynia induced by vincristine sulphate; assay: Tactile allodynia induced by cumulative doses of vincristine sulphate in the rat (paw withdrawal threshold, Dynamic Plantar Aesthesiometer); format: in vivo, rat (WISTAR); conditions: for anti-allodynic effect on first day of administration: day 10
# Experimental: The effect of cholest-4-en-3-one oxime on tactile allodynia induced by cumulative doses of vincristine sulphate was evaluated in the rat. Adult male WISTAR rats weighing approximately 250 g were used. Vincristine sulphate was injected by intravenous route at 200 μg/kg on days 1, 4 and 6 (total cumulative dose of 600 μg/kg). The animal's paw withdrawal thresholds to harmless mechanical stimulation were measured in the rats on days 0, 3, 5, 7 and then every day from day 10 to day 14. The cholest-4-en-3-one oxime (10, 30 and 100 mg/kg once daily) was administered by oral route from day 10 to day 14 and the paw withdrawal thresholds were measured 4 hours after administration of the cholest-4-en-3-one oxime. 8 rats were used per tested dose. The mechanical stimulation thresholds at which the animals withdraw their hind paw in response to mechanical stimulations were measured using a Dynamic Plantar Aesthesiometer (Ugo Basile, Italy). Briefly, in a temperature-controlled room (approximately 22° C.) each animal was placed in a transparent cubic box made of Perspex (22×16.5×14 cm) containing a metal mesh floor giving access to the soles of its paws and left for 15 minutes before the test in order for it to acclimatize. A mechanical stimulus was applied to the left hind paw using a stainless filament (0.5 mm in diameter) exerting a force which increases linearly (2.5 g/sec). The force (g) at which the animal withdraws its paw was recorded automatically. Each paw withdrawal threshold was calculated as the average of three consecutive tests carried out at 5-minute intervals by an investigator ignorant of the treatments used on each of the animals. A 50 g limit was imposed in order to prevent tissue damage. A stock solution of cholest-4-en-3-one oxime in corn oil was prepared on the first day of the experiment and administered once daily by oral tube feeding (5 ml/kg). The cholest-4-en-3-one oxime was reduced to a fine powder and mixed with the necessary quantity of excipient in order to obtain concentrations of […], 6 and 20 mg/ml, the mixture is then homogenized by magnetic stirring for at least 10 minutes. Stock solutions were kept at 4° C. between administrations. A statistical analysis was carried out using a two-way ANOVA test followed by Tukey's test in order to compare the effect of the test compound with respect to the excipient.
# [4] = 3 mg/kg per os daily for 17 days
# [5] = 30 mg/kg per os daily for 17 days
smiles,measurement,setting,value
CC(C)CCC[C@@H](C)[C@H]1CC[C@H]2[C@@H]3CCC4=CC(=NO)CC[C@]4(C)[C@H]3CC[C@]12C [cholest-4-en-3-one oxime],anti-allodynic effect on first day of administration,"[1]; lower doses (1 and 10 mg/kg oral), day 22",no significant anti-allodynic effect
same,anti-allodynic effect after daily treatment,"[1]; oral 100 mg/kg once daily, days 22 to 25",persisted
same,effect on cold allodynia induced by oxaliplatin from third day of administration,"[1]; oral 1 and 10 mg/kg once daily, day 24, P<0.05",significantly reduced the cold allodynia
same,effect on allodynia induced by oxaliplatin vs excipient,"[1]; single oral dose 100 mg/kg, day 22, P<0.05",significantly reduced the allodynia
same,development of mechanical allodynia and hyperalgesia,"[2]; 3 mg/kg and 30 mg/kg per os daily day -1 to day 15, AUC D16 to D40, p<0.01",significantly inhibited
same,anti-allodynia (4 gVFH),[2]; [4],59%
same,anti-hyperalgesia (15 gVFH),[2]; [4],45%
same,anti-allodynia (4 gVFH),[2]; [5],53%
same,anti-hyperalgesia (15 gVFH),[2]; [5],40%
same,anti-allodynic effect on first day of administration,"[3]; oral 10 mg/kg, p=0.086",no significant anti-allodynic effect
same,anti-allodynic effect on first day of administration,"[3]; oral 30 mg/kg, P=0.232",no significant anti-allodynic effect
same,"effect on allodynia induced by vincristine, daily treatment","[3]; oral 10, 30 and 100 mg/kg once daily, days 11 to 14, P<0.05 in all cases",significantly alleviates the allodynia
same,effect on allodynia induced by vincristine vs excipient,"[3]; single oral dose 100 mg/kg, day 10, measured 4 hours after administration, P<0.001",significantly alleviates the allodynia
